Source: ChEMBL document CHEMBL1201862, “PubChem BioAssay data set” (2004)
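Five compound concentrations were applied to cells in 96-well plates for 48 hours; endpoints were derived by simple linear interpolation of the resulting dose-response curve. Abbreviation: GI50, concentration required for 50% inhibition of growth.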 Active and inactive are the calls of the source. No stated cut-off is given here; in the data, active = GI50 up to about 1.1 µM and inactive = higher.

How the values were obtained:
Test in all cases: NCI-60 cell line screen, 48 h
[1] = system: 786-0
[2] = system: A498
[3] = system: A549
[4] = system: ACHN
[5] = system: BT-549
[6] = system: CAKI-1
[7] = system: CCRF-CEM
[8] = system: COLO 205
[9] = system: DU-145
[10] = system: EKVX
[11] = system: HCC 2998
[12] = system: HCT-116
[13] = system: HCT-15
[14] = system: HL-60
[15] = system: HOP-62
[16] = system: HOP-92
[17] = system: HT-29
[18] = system: Hs-578T
[19] = system: IGROV-1
[20] = system: K562
[21] = system: KM12
[22] = system: LOX IMVI
[23] = system: M14
[24] = system: MDA-MB-231
[25] = system: MDA-MB-435
[26] = system: MDA-N
[27] = system: MOLT-4
[28] = system: Malme-3M
[29] = system: NCI-H226
[30] = system: NCI-H23
[31] = system: NCI-H460
[32] = system: NCI-H522
[33] = system: NCI/ADR-RES
[34] = system: OVCAR-3
[35] = system: OVCAR-4
[36] = system: OVCAR-5
[37] = system: OVCAR-8
[38] = system: PC-3
[39] = system: RPMI-8226
[40] = system: RXF 393
[41] = system: SF-268
[42] = system: SF-295
[43] = system: SF-539
[44] = system: SK-MEL-28
[45] = system: SK-MEL-2
[46] = system: SK-MEL-5
[47] = system: SK-OV-3
[48] = system: SN12C
[49] = system: SNB-19
[50] = system: SNB-75
[51] = system: SR
[52] = system: SW-620
[53] = system: T47D
[54] = system: TK-10
[55] = system: U-251
[56] = system: UACC-257
[57] = system: UACC-62
[58] = system: UO-31
[59] = system: MCF7

C[C@]12CC[C@H](O)C[C@@H]1CC[C@@H]1[C@@H]2CC[C@]2(C)[C@@H](C3=CC(=O)OC3)CC[C@]12O
GI50 [1]: 1.95 µM (inactive) | GI50 [2]: 4.5 µM (inactive) | GI50 [3]: 0.627 µM (active) | GI50 [4]: 0.687 µM (active) | GI50 [5]: 1.88 µM (inactive) | GI50 [6]: 1.81 µM (inactive) | GI50 [7]: 0.76 µM (active) | GI50 [8]: 3.18 µM (inactive) | GI50 [9]: 1.49 µM (inactive) | GI50 [10]: 2.38 µM (inactive) | GI50 [11]: 3.05 µM (inactive) | GI50 [12]: 1.73 µM (inactive) | GI50 [13]: 1.86 µM | GI50 [14]: 2.88 µM (inactive) | GI50 [15]: 1.6 µM (inactive) | GI50 [16]: 5.42 µM (inactive) | GI50 [17]: 3.44 µM (inactive) | GI50 [18]: 4.21 µM (inactive) | GI50 [19]: 3.26 µM (inactive) | GI50 [20]: 3.97 µM (inactive) | GI50 [21]: 5.81 µM (inactive) | GI50 [22]: 2.59 µM (inactive) | GI50 [23]: 3.45 µM (inactive) | GI50 [24]: 8.89 µM (inactive) | GI50 [25]: 3.03 µM (inactive) | GI50 [26]: 2.02 µM (inactive) | GI50 [27]: 0.359 µM (active) | GI50 [28]: 2.16 µM (inactive) | GI50 [29]: 11.2 µM (inactive) | GI50 [30]: 1.87 µM (inactive) | GI50 [31]: 0.673 µM (active) | GI50 [32]: 0.719 µM (active) | GI50 [33]: 2.07 µM (inactive) | GI50 [34]: 3.12 µM (inactive) | GI50 [35]: 2.08 µM (inactive) | GI50 [36]: 4.25 µM (inactive) | GI50 [37]: 3.08 µM (inactive) | GI50 [38]: 2.58 µM (inactive) | GI50 [39]: 4.21 µM (inactive) | GI50 [40]: 0.736 µM (active) | GI50 [41]: 1.75 µM (inactive) | GI50 [42]: 2.73 µM (inactive) | GI50 [43]: 1.29 µM (inactive) | GI50 [44]: 7.5 µM (inactive) | GI50 [45]: 3.33 µM (inactive) | GI50 [46]: 1.15 µM (inactive) | GI50 [47]: 3.21 µM (inactive) | GI50 [48]: 0.964 µM (active) | GI50 [49]: 4.95 µM (inactive) | GI50 [50]: 3.85 µM (inactive) | GI50 [51]: > 100 µM (inactive) | GI50 [52]: 3.51 µM (inactive) | GI50 [53]: 3.77 µM (inactive) | GI50 [54]: 4 µM (inactive) | GI50 [55]: 3.73 µM (inactive) | GI50 [56]: 4.03 µM (inactive) | GI50 [57]: 3.55 µM (inactive) | GI50 [58]: 2.37 µM (inactive)

Nc1ccc2nc3ccc(=O)cc-3n(-c3ccccc3)c2c1
GI50 [1]: 35.8 µM (inactive) | GI50 [2]: 32.8 µM (inactive) | GI50 [3]: > 100 µM (inactive) | GI50 [4]: > 100 µM (inactive) | GI50 [5]: 73.8 µM (inactive) | GI50 [7]: 62.8 µM (inactive) | GI50 [8]: 41 µM (inactive) | GI50 [9]: > 100 µM (inactive) | GI50 [10]: > 100 µM (inactive) | GI50 [11]: > 100 µM (inactive) | GI50 [12]: 34.4 µM (inactive) | GI50 [13]: > 100 µM | GI50 [14]: 59 µM (inactive) | GI50 [15]: 30.5 µM (inactive) | GI50 [16]: > 100 µM (inactive) | GI50 [17]: > 100 µM (inactive) | GI50 [18]: 75.9 µM (inactive) | GI50 [19]: 45.5 µM (inactive) | GI50 [20]: > 100 µM (inactive) | GI50 [21]: 7.18 µM (inactive) | GI50 [23]: > 100 µM (inactive) | GI50 [59]: 93.3 µM (inactive) | GI50 [24]: 38.7 µM (inactive) | GI50 [25]: 66.7 µM (inactive) | GI50 [26]: > 100 µM (inactive) | GI50 [27]: > 100 µM (inactive) | GI50 [28]: > 100 µM (inactive) | GI50 [29]: 67.9 µM (inactive) | GI50 [30]: > 100 µM (inactive) | GI50 [31]: > 100 µM (inactive) | GI50 [32]: 38.1 µM (inactive) | GI50 [33]: > 100 µM (inactive) | GI50 [34]: 31.8 µM (inactive) | GI50 [35]: > 100 µM (inactive) | GI50 [36]: > 100 µM (inactive) | GI50 [37]: > 100 µM (inactive) | GI50 [38]: 91.4 µM (inactive) | GI50 [39]: 39.5 µM (inactive) | GI50 [40]: 59.8 µM (inactive) | GI50 [41]: 58.2 µM (inactive) | GI50 [42]: > 100 µM (inactive) | GI50 [43]: 31.6 µM (inactive) | GI50 [44]: > 100 µM (inactive) | GI50 [45]: > 100 µM (inactive) | GI50 [46]: > 100 µM (inactive) | GI50 [47]: > 100 µM (inactive) | GI50 [48]: > 100 µM (inactive) | GI50 [49]: > 100 µM (inactive) | GI50 [50]: 28.2 µM (inactive) | GI50 [52]: > 100 µM (inactive) | GI50 [53]: > 100 µM (inactive) | GI50 [55]: 86.3 µM (inactive) | GI50 [57]: > 100 µM (inactive) | GI50 [58]: 78.9 µM (inactive)

NC(=S)NS(=O)(=O)c1ccc(F)cc1F
GI50 [1]: > 100 µM (inactive) | GI50 [2]: > 100 µM (inactive) | GI50 [3]: > 100 µM (inactive) | GI50 [4]: > 100 µM (inactive) | GI50 [5]: > 100 µM (inactive) | GI50 [6]: > 100 µM (inactive) | GI50 [7]: > 100 µM (inactive) | GI50 [8]: > 100 µM (inactive) | GI50 [9]: > 100 µM (inactive) | GI50 [10]: > 100 µM (inactive) | GI50 [11]: > 100 µM (inactive) | GI50 [12]: > 100 µM (inactive) | GI50 [13]: > 100 µM | GI50 [14]: > 100 µM (inactive) | GI50 [15]: > 100 µM (inactive) | GI50 [16]: > 100 µM (inactive) | GI50 [17]: > 100 µM (inactive) | GI50 [18]: > 100 µM (inactive) | GI50 [19]: > 100 µM (inactive) | GI50 [20]: > 100 µM (inactive) | GI50 [21]: > 100 µM (inactive) | GI50 [22]: > 100 µM (inactive) | GI50 [23]: > 100 µM (inactive) | GI50 [59]: > 100 µM (inactive) | GI50 [24]: > 100 µM (inactive) | GI50 [25]: > 100 µM (inactive) | GI50 [26]: > 100 µM (inactive) | GI50 [27]: > 100 µM (inactive) | GI50 [28]: > 100 µM (inactive) | GI50 [29]: > 100 µM (inactive) | GI50 [30]: > 100 µM (inactive) | GI50 [31]: > 100 µM (inactive) | GI50 [32]: > 100 µM (inactive) | GI50 [33]: > 100 µM (inactive) | GI50 [34]: > 100 µM (inactive) | GI50 [35]: > 100 µM (inactive) | GI50 [36]: > 100 µM (inactive) | GI50 [37]: > 100 µM (inactive) | GI50 [38]: > 100 µM (inactive) | GI50 [39]: > 100 µM (inactive) | GI50 [40]: > 100 µM (inactive) | GI50 [41]: > 100 µM (inactive) | GI50 [42]: > 100 µM (inactive) | GI50 [43]: > 100 µM (inactive) | GI50 [44]: > 100 µM (inactive) | GI50 [45]: > 100 µM (inactive) | GI50 [46]: > 100 µM (inactive) | GI50 [47]: > 100 µM (inactive) | GI50 [48]: > 100 µM (inactive) | GI50 [49]: > 100 µM (inactive) | GI50 [50]: > 100 µM (inactive) | GI50 [52]: > 100 µM (inactive) | GI50 [53]: > 100 µM (inactive) | GI50 [54]: > 100 µM (inactive) | GI50 [55]: > 100 µM (inactive) | GI50 [56]: > 100 µM (inactive) | GI50 [57]: > 100 µM (inactive)
